Positions of bridges follow the written chain, without caps; N, C: chain ends. Non-standard residues stand in square brackets, D forms with d. Residues, ends and D or L forms follow the SMILES beside them. R8 = C=CCCCCCC[C@@](C)(N)C(=O)O; S5 = C=CCCC[C@](C)(N)C(=O)O

One data set addresses T1, full-length CtIP-wt (Homo sapiens, UniProt Q99708).
T1 construct: Full-length CtIP was purified according to ([14]); 3xFLAG; made in house
Put plainly: Blue native PAGE of full-length CtIP incubated with peptides. The format is biochemical. Particulars: 1- to 32-fold molar excess SP^18–28, 32-fold LP^18–28, 30 min RT. The procedure:
Reactions were assembled in a volume of 10 μl with a 1.5 μM final concentration of CtIP and either 0, 1.5, 3, 6, 12, 24, or 48 μM LP/SP^18–28 in buffer A [10 mM tris (pH 8.0), 25 mM NaCl, 5% glycerol, and 0.5 mM dithiothreitol (DTT)] and 1× Blue Native Loading buffer [50 mM bis-tris (pH 7.2), 6 N HCl, 50 mM NaCl, 10% (w/v) glycerol, and 0.001% Ponceau S]. After incubation for 30 min at RT, samples were loaded onto a NativePAGE Novex 3 to 12% bis-tris gel (Invitrogen) and run at 150 V for 75 min. Gels were fixed in 40% methanol (MeOH) and 10% acetic acid and destained with 8% acetic acid.

The subject of the next data set is U2OS EGFP-HR. The experiment in a line: HR reporter assay. The format is cell-based. Particulars: 10 μM peptide, 24 hours; GFP-positive cells by flow cytometry; n = 4. The procedure: HR reporter assay was performed as described previously ([45], [46]). Briefly, U2OS EGFP-HR were seeded into a 12-well plate and the day after transfected with pCBA I-SceI expression plasmid using jetPRIME transfection reagent (Polyplus). Four hours later, medium was exchanged, and cells were incubated with peptides for 24 hours in 1-ml total volume. Twenty-four hours later, medium was replaced, and cells were harvested 48 hours after I-SceI transfection. A-EJ reporter assay was performed according to ([10]) with some minor modifications. Specifically, U2OS EGFP-aEJ were seeded into six-well plates and siRNA transfected. Six hours later, cells were transfected with I-SceI expression plasmid (pCBA) using Fugene 6 (Promega). Medium was exchanged 24 hours after and replaced with 2-ml fresh medium and the peptides (10 μM). Twenty-four hours later, medium was again replaced with fresh medium without peptides, and 72 hours after I-SceI transfection, cells were harvested. GFP expression (readout for HR and a-EJ frequency) was measured by flow cytometry using the Attune Nxt flow cytometer equipped with a 488-nm laser and 530/30 band-pass filter. A minimum of 20,000 events were recorded.

The test system of the next data set is U2OS^GFP-CtIP-wt. Put plainly: Laser microirradiation, GFP-CtIP recruitment to γH2AX-decorated laser stripes. The format is cell-based. Particulars: 10 μM peptide, 24 hours, fixed 30 min after microirradiation; n = 4. The method, then: Laser microirradiation was carried out as described previously ([25]). Briefly, cells were grown in 10 μM 5-bromo-2′-deoxyuridine (BrdU) for 24 hours before irradiation. Laser microirradiation was performed using a MMI CELLCUT system containing an ultraviolet (UV) A laser of 355 nm. Energy output was set to 50%, and each cell was exposed to laser beam for <300 ms. Cells were released for 30 min before fixation in 4% formaldehyde (w/v) in PBS for 15 min and permeabilization with 0.5% Triton X-100 (w/v) in PBS for 5 min at RT. After blocking with 3% FCS (w/v) in PBS for 1 hour, cells were stained with primary antibodies (table S3) for 2 hours. Staining with secondary antibodies (table S3) was performed for 1 hour. Coverslips were mounted with Vectashield supplemented with DAPI (4′,6-diamidino-2-phenylindole; Vector Laboratories), and images were acquired on a Leica DM6, 63× objective. For CtIP foci analyses, cells were fixed in 4% formaldehyde (w/v) in PBS for 15 min before permeabilization with 0.5% Triton X-100 (w/v) in PBS for 5 min at RT. A blocking step with 3% FCS (w/v) in PBS for 1 hour was followed by primary (2-hour) and secondary (1-hour) staining at RT.

Another data set has as its system U2OS cells. Put plainly: EdU incorporation, cell cycle distribution and cell proliferation. The format is cell-based. The settings on record: fig. S5, E and F; proliferation at 5 μM. The method, then: HeLa cells were seeded into six-well plates and incubated with peptides in a volume of 2 ml for varying time points. Cells were harvested by trypsinization, washed, and resuspended in PBS before subjecting them to flow cytometry analysis. FITC intensity was measured with an Attune Nxt flow cytometer equipped with a 488-nm laser and 530/30 band-pass filter. Analysis of 5-Ethynyl-2′-deoxyuridine (EdU) incorporation was carried out using the Click-iT EdU technology (Thermo Fisher Scientific) as described in the manufacturer’s instructions. A minimum of 20,000 events were recorded.
A total of 125 and 250 U2OS cells were seeded in triplicates in 96-well plates in a volume of 90 μl. Twenty-four hours after seeding, 10 μl of medium only or medium with the indicated peptides was added to the wells reaching a final peptide concentration of 5 μM. Cell proliferation was monitored using a CellTiter-Blue–based (Promega) approach at specific time points (0, 2, 5, and 7 days after peptide treatment). In brief, 20-μl CellTiter-Blue reagent (Promega) was added to the wells, incubated for 4 hours, and fluorescence intensity was measured at 560/590 nm using a SpectraMax M5 microplate reader (Molecular Devices).

In a further data set the test system is HeLa cells. The experiment in a line: Clonogenic survival assay. The format is cell-based. The settings on record: 10 μM, fig. S7A. The procedure: (§1) Two hundred cells per well were seeded into poly-L-lysine (Sigma-Aldrich)–coated 24-well plates and the next day treated with respective drugs (CPT, Sigma-Aldrich; olaparib, Selleck Chemicals) and peptides (total volume: 300 μl per well). For details, see figure legends. After 10 days of growth, cells were fixed with crystal violet solution [0.5% crystal violet and 20% ethanol (w/v)]. Plates were scanned, and survival was analyzed with the ImageJ plugin Colony Area using the parameter colony intensity as readout ([47]).

The subject of another data set is MCF10A. The experiment in a line: Clonogenic survival assay. In kind it is cell-based. The settings on record: 10 μM peptide 24 hours, 10 days growth; BRCA1 wt nontumorigenic cell line. The method, then: as §1
Another data set relates to MCF7. The experiment in a line: Clonogenic survival assay. In kind it is cell-based. Particulars: 10 μM peptide 24 hours, 10 days growth; BRCA1 wt breast cancer cell line. The method, then: as §1
The test system of another data set is RPE1. Put plainly: Clonogenic survival assay. The format is cell-based. The settings on record: 10 μM peptide 24 hours, 10 days growth; BRCA1 wt nontumorigenic cell line. The procedure:
as §1

Data set [1] is described as follows: CD spectroscopy and CD thermal denaturation. The format is physicochemical. The settings on record: 210 nm, 25° until 90°C, ddH2O. The method, then:
CD spectroscopy data were collected on a Jasco J-710 spectropolarimeter. A total of 0.2 or 0.05 mg/ml of LP^18–28 or SP^18–28 in ddH2O was measured with a 1-mm path length cuvette. CD spectra were recorded at 0.5-nm intervals between 190 and 260 nm at 25°C. CD thermal denaturation data were recorded at 210 nm at 0.2°C intervals starting at 25° until 90°C.

T1 sequence (Q99708 whole entry): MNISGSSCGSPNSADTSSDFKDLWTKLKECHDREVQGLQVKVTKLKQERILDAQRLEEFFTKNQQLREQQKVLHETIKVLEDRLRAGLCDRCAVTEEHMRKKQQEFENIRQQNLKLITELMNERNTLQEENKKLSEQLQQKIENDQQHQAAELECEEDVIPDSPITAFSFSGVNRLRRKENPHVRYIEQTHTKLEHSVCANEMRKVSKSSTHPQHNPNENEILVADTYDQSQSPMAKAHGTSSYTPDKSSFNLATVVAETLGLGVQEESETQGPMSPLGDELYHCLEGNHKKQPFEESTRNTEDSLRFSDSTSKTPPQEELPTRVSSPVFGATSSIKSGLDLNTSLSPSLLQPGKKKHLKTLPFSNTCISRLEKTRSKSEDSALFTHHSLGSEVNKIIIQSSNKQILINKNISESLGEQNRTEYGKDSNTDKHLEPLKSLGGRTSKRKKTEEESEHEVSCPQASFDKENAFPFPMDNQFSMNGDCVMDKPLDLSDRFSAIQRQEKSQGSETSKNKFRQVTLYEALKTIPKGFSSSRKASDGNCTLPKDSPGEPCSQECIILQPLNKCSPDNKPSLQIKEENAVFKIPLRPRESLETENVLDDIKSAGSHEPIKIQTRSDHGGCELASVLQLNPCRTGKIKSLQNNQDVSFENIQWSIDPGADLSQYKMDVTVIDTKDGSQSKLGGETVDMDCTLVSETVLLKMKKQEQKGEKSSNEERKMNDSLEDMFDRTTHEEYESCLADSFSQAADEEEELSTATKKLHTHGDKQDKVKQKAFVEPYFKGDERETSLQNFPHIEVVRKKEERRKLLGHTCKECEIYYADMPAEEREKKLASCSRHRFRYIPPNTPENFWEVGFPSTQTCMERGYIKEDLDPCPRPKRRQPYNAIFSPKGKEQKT

In the case of Ac-SDFKDLWTKLK-NH2 [LP^18–28], the “effect on CtIP-wt oligomeric state” value on full-length CtIP-wt is reported as “no apparent structural changes”. In the data set on U2OS EGFP-HR, the “HR frequency of I-SceI–induced DSBs” value is reported as “no measurable impact”. Moreover, in the data set on U2OS^GFP-CtIP-wt, the “CtIP recruitment to γH2AX-decorated laser stripes” value is recorded as “no significant effect”.

With `CC(=O)N[C@@H](CO)C(=O)N[C@]1(C)CCCCCCC=CCCC[C@@](C)(C(=O)N[C@@H](CC(C)C)C(=O)N[C@@H](CCCCN)C(N)=O)NC(=O)[C@H]([C@@H](C)O)NC(=O)[C@H](Cc2c[nH]c3ccccc23)NC(=O)[C@H](CC(C)C)NC(=O)[C@H](CC(=O)O)NC(=O)[C@H](CCCCN)NC(=O)[C@H](Cc2ccccc2)NC1=O` [SP^18–28] (Ac-S[R8]FKDLWT[S5]LK-NH2; staple 2-9), the “bulk DNA replication, cell cycle distribution and cell proliferation” value in the data set with U2OS cells is “neither interferes with bulk DNA replication nor causes any significant changes in cell cycle distribution and cell proliferation”. In the data set on HeLa cells (acute (24-hour) treatment), the “tolerability of acute peptide treatment (clonogenic)” value was “well tolerated”. Moreover, the “cytotoxicity of chronic peptide treatment on its own (clonogenic)” value with HeLa cells (prolonged chronic treatment) is “extreme cytotoxicity”. Moreover, the “cell survival (clonogenic)” value in the data set with MCF10A, with MCF7 and with RPE1 was “did not perceive a negative impact on cell survival” each time. Moreover, the “heat stability of secondary structure (CD thermal denaturation)” value in data set [1] is “no unfolding could be observed at temperatures of up to 90 °C”.

For the origin of these results see PMC7895427, “A stapled peptide mimetic of the CtIP tetramerization motif interferes with double-strand break repair and replication fork protection” (Science Advances, 2021).
